According to the NIST ThermoML archive (doi:10.1021/je5005752):

Experiment: xn = mol fraction of the nth substance listed
Conditions: 101 kPa, Liquid; for viscosity: Falling or rolling sphere viscometry; for mass density: Vibrating tube method

CCCC(=O)OCC [ethyl butanoate] + CC(C)CCO
Conditions | mass density [kg/m3] | viscosity [mPa·s]
288.15 K, x1 = 0.1001 | 820.68 | 3.238
288.15 K, x1 = 0.2 | 828.59 | 2.255
288.15 K, x1 = 0.3 | 836.24 | 1.754
288.15 K, x1 = 0.4 | 843.64 | 1.414
288.15 K, x1 = 0.5 | 850.77 | 1.184
288.15 K, x1 = 0.6 | 857.71 | 1.031
288.15 K, x1 = 0.7 | 864.47 | 0.9059
288.15 K, x1 = 0.7999 | 871.18 | 0.8213
288.15 K, x1 = 0.8995 | 877.79 | 0.7679
288.15 K, x1 = 1 | 884.16 | 0.7224
293.15 K, x1 = 0.1001 | 816.74 | 2.813
293.15 K, x1 = 0.2 | 824.48 | 2
293.15 K, x1 = 0.3 | 831.95 | 1.575
293.15 K, x1 = 0.4 | 839.17 | 1.285
293.15 K, x1 = 0.5 | 846.15 | 1.086
293.15 K, x1 = 0.6 | 852.95 | 0.953
293.15 K, x1 = 0.7 | 859.56 | 0.8432
293.15 K, x1 = 0.7999 | 866.14 | 0.7689
293.15 K, x1 = 0.8995 | 872.63 | 0.7214
293.15 K, x1 = 1 | 878.9 | 0.6808
298.15 K, x1 = 0.1001 | 812.8 | 2.462
298.15 K, x1 = 0.2 | 820.34 | 1.785
298.15 K, x1 = 0.3 | 827.63 | 1.422
298.15 K, x1 = 0.4 | 834.7 | 1.172
298.15 K, x1 = 0.5 | 841.51 | 0.9993
298.15 K, x1 = 0.6 | 848.16 | 0.8831
298.15 K, x1 = 0.7 | 854.64 | 0.7864
298.15 K, x1 = 0.7999 | 861.09 | 0.7207
298.15 K, x1 = 0.8995 | 867.46 | 0.6784
298.15 K, x1 = 1 | 873.62 | 0.643
303.15 K, x1 = 0.1001 | 808.84 | 2.164
303.15 K, x1 = 0.2 | 816.19 | 1.598
303.15 K, x1 = 0.3 | 823.31 | 1.288
303.15 K, x1 = 0.4 | 830.2 | 1.073
303.15 K, x1 = 0.5 | 836.86 | 0.9221
303.15 K, x1 = 0.6 | 843.37 | 0.8204
303.15 K, x1 = 0.7 | 849.71 | 0.7345
303.15 K, x1 = 0.7999 | 856.02 | 0.6764
303.15 K, x1 = 0.8995 | 862.27 | 0.6389
303.15 K, x1 = 1 | 868.33 | 0.6072
308.15 K, x1 = 0.1001 | 804.86 | 1.914
308.15 K, x1 = 0.2 | 812.02 | 1.439
308.15 K, x1 = 0.3 | 818.96 | 1.172
308.15 K, x1 = 0.4 | 825.69 | 0.9851
308.15 K, x1 = 0.5 | 832.19 | 0.853
308.15 K, x1 = 0.6 | 838.55 | 0.7639
308.15 K, x1 = 0.7 | 844.75 | 0.6872
308.15 K, x1 = 0.7999 | 850.94 | 0.6355
308.15 K, x1 = 0.8995 | 857.07 | 0.6026
308.15 K, x1 = 1 | 863.02 | 0.5736
313.15 K, x1 = 0.1001 | 800.85 | 1.7
313.15 K, x1 = 0.2 | 807.82 | 1.302
313.15 K, x1 = 0.3 | 814.58 | 1.069
313.15 K, x1 = 0.4 | 821.15 | 0.9071
313.15 K, x1 = 0.5 | 827.5 | 0.7907
313.15 K, x1 = 0.6 | 833.71 | 0.7128
313.15 K, x1 = 0.7 | 839.78 | 0.6437
313.15 K, x1 = 0.7999 | 845.83 | 0.5975
313.15 K, x1 = 0.8995 | 851.85 | 0.569
313.15 K, x1 = 1 | 857.7 | 0.5425
318.15 K, x1 = 0.1001 | 796.81 | 1.516
318.15 K, x1 = 0.2 | 803.6 | 1.181
318.15 K, x1 = 0.3 | 810.18 | 0.9787
318.15 K, x1 = 0.4 | 816.58 | 0.8373
318.15 K, x1 = 0.5 | 822.78 | 0.7346
318.15 K, x1 = 0.6 | 828.85 | 0.6658
318.15 K, x1 = 0.7 | 834.78 | 0.6038
318.15 K, x1 = 0.7999 | 840.71 | 0.5626
318.15 K, x1 = 0.8995 | 846.61 | 0.538
318.15 K, x1 = 1 | 852.36 | 0.5132
323.15 K, x1 = 0.1001 | 792.73 | 1.371
323.15 K, x1 = 0.2 | 799.34 | 1.08
323.15 K, x1 = 0.3 | 805.76 | 0.8983
323.15 K, x1 = 0.4 | 811.99 | 0.7743
323.15 K, x1 = 0.5 | 818.03 | 0.6838
323.15 K, x1 = 0.6 | 823.96 | 0.6195
323.15 K, x1 = 0.7 | 829.75 | 0.5672
323.15 K, x1 = 0.7999 | 835.56 | 0.5303
323.15 K, x1 = 0.8995 | 841.34 | 0.5071
323.15 K, x1 = 1 | 847 | 0.487
